Assays:
carrageenan foot edema = assay: Rat carrageenan foot pad edema test; type: in vivo, Male Sprague-Dawley rats; set-up: inhibition in vivo: dose or concentration left out as unconfirmed; conditions: po, 3 h, dosed orally, foot volume three hours after carrageenan, read-out: RAT PAW EDEMA % Inhibition
Procedure: Rat Carrageenan Foot Pad Edema Test
Male Sprague-Dawley rats were selected in each group so that the average body weight was as close as possible. Rats were fasted with free access to water for over sixteen hours prior to the test. The rats were dosed orally (1 mL) with compounds suspended in vehicle containing 0.5% methylcellulose and 0.025% surfactant, or with vehicle alone. One hour later a subplantar injection of 0.1 mL of 1% solution of carrageenan/sterile 0.9% saline was administered and the volume of the injected foot was measured with a displacement plethysmometer connected to a pressure transducer with a digital indicator. Three hours after the injection of the carrageenan, the volume of the foot was again measured. The average foot swelling in a group of drug-treated animals was compared with that of a group of placebo-treated animals and the percentage inhibition of edema was determined (Otterness and Bliven, Laboratory Models for Testing NSAIDs, in Non-steroidal Anti-Inflammatory Drugs, (J. Lombardino, ed. 1985)).

Analgesia (Table I) = type: in vivo; set-up: inhibition in vivo: dose or concentration left out as unconfirmed; conditions: read-out: ANALGESIA % Inhibition
COX-2 [1] = biological target: T1, COX-2 (UniProt P35354); assay: Fast assay for COX-2 activity (PGE2 ELISA); type: biochemical, human or murine; conditions: fast assay: 10 min pre-incubation at 25° C., reaction stopped after two minutes, pH 7.5
T1 sequence (P35354 1-604): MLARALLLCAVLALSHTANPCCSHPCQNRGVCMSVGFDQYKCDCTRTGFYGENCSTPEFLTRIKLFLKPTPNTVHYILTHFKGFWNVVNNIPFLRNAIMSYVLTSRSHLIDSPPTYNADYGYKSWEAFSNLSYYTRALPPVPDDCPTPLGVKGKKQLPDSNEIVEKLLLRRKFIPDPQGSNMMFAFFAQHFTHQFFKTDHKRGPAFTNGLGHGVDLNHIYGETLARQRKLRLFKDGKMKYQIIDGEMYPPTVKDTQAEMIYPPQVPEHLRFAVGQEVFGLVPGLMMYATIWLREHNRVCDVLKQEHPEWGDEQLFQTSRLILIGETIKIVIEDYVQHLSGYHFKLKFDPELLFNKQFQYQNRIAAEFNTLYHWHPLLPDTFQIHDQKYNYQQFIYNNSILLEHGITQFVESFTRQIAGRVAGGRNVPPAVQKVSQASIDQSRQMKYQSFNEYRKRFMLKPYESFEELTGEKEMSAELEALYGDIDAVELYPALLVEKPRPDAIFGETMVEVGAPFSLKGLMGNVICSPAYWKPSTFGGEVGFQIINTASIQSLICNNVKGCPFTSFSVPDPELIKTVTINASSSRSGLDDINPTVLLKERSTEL

COX-2 [2] = biological target: T1, COX-2; assay: Assay for COX-2 activity (PGE2 ELISA); conditions: read-out: COX-2 IC50; 10–20 minutes pre-incubation, reaction stopped after ten minutes, pH 8.0
COX-1 = COX-1 (UniProt P23219); assay: Assay for COX-1 activity (PGE2 ELISA); conditions: read-out: COX-1 IC50; 10–20 minutes pre-incubation, reaction stopped after ten minutes, pH 8.0

| IC50 (COX-2 [1]) [nM] | melting point [°C] | IC50 (COX-2 [2]) [nM] | IC50 (COX-1) [nM] | Compound | inhibition in vivo (carrageenan foot edema) [%] | inhibition in vivo (Analgesia (Table I)) [%] | inhibition in vivo at 10 mg/kg (carrageenan foot edema; @ 10 mpk (values marked *)) [%] | inhibition in vivo at 10 mg/kg (Analgesia (Table I); @ 10 mpk (values marked *)) [%] |
| --- | --- | --- | --- | --- | --- | --- | --- | --- |
| 300 | 223.7 to 226 | 200 | 100 | O=C(O)C1=Cc2cc(Oc3ccc(C(F)(F)F)cc3)cc(Cl)c2OC1C(F)(F)F (stereo not drawn) [Example 105] | 75 | 69 | – | – |
| < 100 | 186.2 to 189 | < 100 | < 100 | C#Cc1cc(Cl)cc2c1OC(C(F)(F)F)C(C(=O)O)=C2 (stereo not drawn) [Example 115, 6-Chloro-8-ethynyl-2-(trifluoromethyl)-2H-1-benzopyran-3-carboxylic acid] | 52 | 62 | – | – |
| < 100 | 217.9 to 220.3 | < 100 | 100 | O=C(O)C1=Cc2cc(Cl)cc(Cl)c2SC1C(F)(F)F (stereo not drawn) [Example 156, 6,8-Dichloro-2-trifluoromethyl-2H-1-benzothiopyran-3-carboxylic acid] | 54 | 66 | – | – |
| < 100 | 220.2 to 221.8 | < 100 | 300 | O=C(O)C1=Cc2cc(Cl)c(Oc3ccccc3)cc2OC1C(F)(F)F (stereo not drawn) [Example 177, 6-Chloro-7-phenoxy-2-(trifluoromethyl)-2H-1-benzopyran-3-carboxylic acid] | – | – | 59 | 61 |
| < 100 | 223.6 to 225.6 | < 100 | 3700 | O=C(O)C1=Cc2cc(Cl)c(Oc3ccc(Cl)cc3Br)cc2OC1C(F)(F)F (stereo not drawn) [Example 188, 7-(2-Bromo-4-chlorophenoxy)-6-chloro-2-(trifluoromethyl)-2H-1-benzopyran-3-carboxylic acid] | 57 | 69 | – | – |
